Measurements published in patent US8187573B2, “In vivo detection of apoptosis” (priority 2005, dated 2012).
“Also recorded” adds a separate entry of the source.

Experiments:
[1] = test system: SCK mammary tumors; experiment: SCK mammary tumor window chamber model, bright-field imaging of hemorrhaging; format: in vivo, A/J mice; conditions: 8.0 mg/kg ATO
Description: (§1) Using a mouse window chamber model, SCK mammary tumors were evaluated for levels of apoptosis induction in tumors following irradiation treatment with arsenic trioxide (ATO) and heat. A window chamber, used for viewing tumors, was placed over a fold of skin in A/J mice. 2×10^5 SCK mammary carcinoma cells were injected into the skin fold. The tumors were allowed to grow for 7 to 9 days. In the test mice, tumors were irradiated with 20 Gy, 8 mg/kg ATO and 2 hours later the tumors were heated at 41.5° C. for 60 minutes. Control mice were not treated with irradiation or heat and a placebo was injected instead of ATO.
(§2) After allowing the tumors to grow 7 days, the test mice were first irradiated with 20 Gy. This was immediately followed by an intraperitoneal (I.P.) injection of ATO. The ATO was dissolved in water and injected in a solution of PBS with 5% w/v of dextrose at a concentration of 8 mg/kg. After 2 hours the tumors were heated at 41.5° C. for 60 minutes. Control mice received an I.P. injection of PBS with 5% dextrose.
Prior to treatment, tumors were examined in control mice and designated test mice. Low magnification bright-field image composite photographs of SCK mammary tumors taken through a window chamber reveal a low level of hemorrhaging in all tumors (FIG. 1). […]

[2] = test system: SCK tumor cells; experiment: Flow cytometry of cells from SCK tumors after in vivo FAM-VAD-FMK labelling; design: species or system mouse; conditions: 8.0 mg/kg ATO
Description: In another set of mice, the tumors were allowed to grow for 7 days. Control mice received placebo injections as before and test mice received ATO injections as before. After 24 hours all mice received I.V. injections of FAM-VAD-FMK as before. The in vivo apoptosis detection and imaging reagent was allowed to circulate through each mouse for 30 minutes. After imaging tumor-associated apoptosis in vivo, tumor tissue was collected from the window chamber by scraping the tumor out of the chamber into a trypsin solution, stirring for 30 minutes with 10 μg/ml DNase and 5 μg/ml collagenase, filtering the suspension using a […] cell strainer. Flow cytometry was then performed using a FACS Caliber flow cytometer (Becton Dickinson Immunocytometry System, San Jose, Calif.) for the analysis of apoptosis in the cell population obtained from the window chamber. All data was acquired with an event acquisition set for 10,000 events. Data was analyzed using CellQuest Pro cytometer software.

[3] = test system: SCK mammary tumors; experiment: SCK mammary tumor window chamber model, in vivo apoptosis imaging with FAM-VAD-FMK (488 nm, FITC filter); design: species or system A/J mice; conditions: 8.0 mg/kg ATO, 8 μg FAM-VAD-FMK IV, 30 min circulation
Description: as §1, §2
Apoptosis was detected by injecting the in vivo apoptosis detection reagent FAM-VAD-FMK into the tail vein of control and test mice. […]
Control mice were given FAM-VAD-FMK injections following placebo injections. […] Test mice that received ATO treatment were given FAM-VAD-FMK injections at 3 hours and 24 hours after ATO treatment, and apoptosis was evaluated as before. […]

[4] = test system: FSaII murine fibrosarcoma tumors; experiment: Longitudinal apoptosis imaging of FSaII tumor in dorsal skin flap chamber (DSFC) with FAM-VAD-FMK; format: in vivo, nu/nu mice
Description: A longitudinal study was performed in nu/nu mice to assess the efficacy of arsenic trioxide (ATO) on FSaII murine fibrosarcoma tumors before and after ATO treatment through a window chamber.
Dorsal skin flap chambers (DSFC) were surgically implanted into the backs of nu/nu mice as follows. Entire implantation procedure was conducted within a laminar flow hood to preserve a sterile field. Skin was washed twice with betadine and allowed to dry. One sterilized chamber piece containing a round window (9 mm) was placed on one side of the dorsal skin fold. Holes for three connecting screws were made through the skin fold connecting with another chamber piece with a similar window. The assembly was then tightened together with screws and nuts through the chamber piece spacers. A circle of cutaneous tissue and fascia was carefully cut away from the skin fold inside the DSFC window, exposing the blood vessels of the subcutaneous tissue adjacent to the striated muscles of the opposing skin fold. Antibiotic ointment (bacitracin zinc/polymyxin B sulfate/neomycin sulfate) was used on the edges of the wound inside the DSFC window. A glass window was placed in the chamber to cover the exposed tissue and secured with a snap C-ring. The surgical wound procedure was then repeated in the opposite DSFC window so that a very thin, transparent layer of fascia and vessels remained visible through both windows (created to facilitate microscope light transmission through the tissue). Finally, the chamber was sutured to the skin.
After surgery, the animals were housed in barrier cages inside a humidified incubator maintained at 32° C. with unrestricted access to food and water. To minimize risk of infection, all mice were given amoxicillin in their drinking water (250 mg per 5 mL water) after DSFC implantation and throughout the experiment.
Tumor cells were implanted into one side of the chamber by temporary removal of the C-ring and glass cover slip. […]

[5] = test system: Spleen, Liver, Thymus, and CNS tissues; experiment: In vivo detection of morphine-mediated apoptosis: apoptosis positive cell counts in tissue sections after IV FAM-VAD-FMK; conditions: bone marrow and liver tissues (conclusion)
Description: Spleen, Liver, Thymus, and CNS tissues were isolated from different treatment groups, frozen and mounted on glass slides. The various cell types were adjusted to 1×10^6 cells/mL and cytospun on a glass slide for analysis by fluorescence microscopy. Sections were photographed and analyzed by MetaMorph analysis program for apoptosis positive cell counts. Counts were analyzed by statistics software.
Spleen, Liver, Thymus, and CNS tissues were isolated from different treatment groups, frozen and mounted on glass slides. Sections were photographed and analyzed by MetaMorph analysis program for apoptosis positive cell counts. Counts were analyzed by statistics software.

**Q.** With arsenic trioxide [ATO] as the compound, how does the “level of hemorrhaging in tumor” value ([1]; 3 hours after completion of treatment, vs placebo control) read?
**A.** Increased levels of hemorrhaging

**Q.** What about the “level of hemorrhaging in tumor” value ([1]; 24 hours after completion of treatment, vs 3 hour photograph) of the same compound?
**A.** amount of hemorrhaging has also increased over time

**Q.** What about the “apoptotic cells (apoptosis induction rate)” value ([2]; 24 hours after treatment, flow cytometry, 10,000 events, control mouse 18%) of the same compound?
**A.** 39%

**Q.** And the “increase in apoptosis versus control mouse” value ([2]; 24 hours, flow cytometry)?
**A.** two-fold increase

**Q.** And the “level of apoptosis in tumor (fluorescence)” value ([3]; 3 hours post ATO)?
**A.** substantial increase in the level of apoptosis; also recorded: high level of apoptosis

**Q.** What about the “level of apoptosis in tumor (fluorescence)” value ([3]; 24 hours post ATO) of the same compound?
**A.** even higher; also recorded: higher level of apoptosis

**Q.** And the “level of apoptosis in tumor (fluorescence, 10×)” value ([4]; 8.0 mg/kg ATO IP, 3 hours post ATO, 12.0 μg FAM-VAD-FMK IV, 45 min, same tumor before vs after)?
**A.** significant level of apoptosis; also recorded: increase in apoptosis within the tumor is clear

**Q.** With “carboxyfluorescein-valanyl-alanyl-aspartyl(O-methyl)-fluoromethyl ketone [FAM-VAD-FMK]” as the compound, how does the “in vivo detection of apoptosis in living tissue” value ([4]; IV injection) read?
**A.** works for the in vivo detection of apoptosis

**Q.** And the “side-effects of the reagent in longitudinal studies” value ([4]; IV injection, repeated in the same animal)?
**A.** no side-effects

**Q.** With `CN1CC[C@]23c4c5ccc(O)c4O[C@H]2[C@@H](O)C=C[C@H]3[C@H]1C5` [Morphine, morphine] as the compound, how does the “enhancement of apoptosis of LPS activated cells” value [5] read?
**A.** enhanced apoptosis of LPS activated cells
